Data reported in patent publication US20100267637A1, “TREATMENT OF MELANOMA WITH ALPHA THYMOSIN PEPTIDES IN COMBINATION WITH A KINASE INHIBITOR” (SciClone Pharmaceuticals, Inc., priority 2007, published 2010).

Assays:
[1] = tested on: murine B16 melanoma cells; test: Anti-tumor effect: tumor weight at necropsy (Day 16) in mice bearing subcutaneous B16 melanoma; type: in vivo, C57BL/6 mice
Method: (§1) The toxic effects of the dosing regimens were also monitored. […] Meanwhile 9H10 was given in two groups via i.p. on Day 3, 6 and 9. […] Tumor volume and body weight were measured every three days, and tumor weights were measured on Day 16 at the end of the study.
On the day of tumor implantation, approximately 1×10^6 cells in 0.1 mL were subcutaneously injected on the right axillary area of each mouse. The day of tumor implantation was defined as Day 0.
(§2) On Day 3, the animals were randomly assigned into nine different weight-matched and tumor-size-matched groups. Dosing was started on Day 3 using the regimen according to Table 2.
(§3) From Day 1 to Day 15, mortality and moribundity were checked twice daily, the body weights were recorded once every 3 days, and tumors were measured using a caliper once every 3 days. At the end of the study (Day 16), the animals were euthanized by CO2 asphyxiation, and the tumors were excised and weighed.
The anti-tumor effect of the test article was further evaluated with tumor weight (TW) measured on day of necropsy (Day 16). The PI of TW was calculated using the equation below:
PITW(%)=100×(TW vehicle−TW drug treated)/TW vehicle
(§4) Inter-group comparison was performed in terms of tumor volume, tumor weight and body weight, using a student's t test. P values of less than 0.05 were considered to be statistically significant.

[2] = Treatment toxicity: body weight and drug-induced animal deaths in B16 melanoma-bearing mice; type: in vivo, C57BL/6 mice
Method: as §1, §2, §3
Toxicity of all treatment regimens was evaluated with the body weights of the study animals along with the drug-induced animal deaths. The inhibition of body weight was calculated using Excel according to the equation below:
PIBW(%)=100×(BW vehicle−BW drug treated)/BW vehicle
as §4

Compound: CN(C)/N=N/c1[nH]cnc1C(N)=O [DTIC, Dacarbazine]
- Tumor weight on Day 16 ([1]; animal F1): 1.40 g
- Tumor weight on Day 16 ([1]; animal F2): 0.43 g
- Tumor weight on Day 16 ([1]; animal F3): 0.47 g
- Tumor weight on Day 16 ([1]; animal F4): 0.68 g
- Tumor weight on Day 16 ([1]; animal F5): 0.56 g
- Tumor weight on Day 16 ([1]; animal M1): 1.80 g
- Tumor weight on Day 16 ([1]; animal M2): 1.80 g
- Tumor weight on Day 16 ([1]; animal M3): 0.83 g
- Tumor weight on Day 16 ([1]; animal M4): 2.30 g
- Tumor weight on Day 16 ([1]; animal M5): 1.90 g
- Tumor Weight (g) (Mean ± SD) ([1]; group mean): 1.22 ± 0.699 g
- percent inhibition of tumor weight vs vehicle ([1]; vs vehicle): 28.41%
- Body Weight (g) (Mean ± SD) ([2]; Day 0 (tumor implantation, before dosing)): 20.86 ± 1.294 g
- Body weights on Day 0 ([2]; Day 0, animal F1): 21.50 g
- Body weights on Day 0 ([2]; Day 0, animal F2): 19.90 g
- Body weights on Day 0 ([2]; Day 0, animal F3): 19.70 g
- Body weights on Day 0 ([2]; Day 0, animal F4): 19.30 g
- Body weights on Day 0 ([2]; Day 0, animal F5): 22.10 g
- Body weights on Day 0 ([2]; Day 0, animal M1): 22.40 g
- Body weights on Day 0 ([2]; Day 0, animal M2): 21.80 g
- Body weights on Day 0 ([2]; Day 0, animal M3): 21.00 g
- Body weights on Day 0 ([2]; Day 0, animal M4): 18.90 g
- Body weights on Day 0 ([2]; Day 0, animal M5): 22.00 g
- Percent inhibition of body weight vs vehicle (PIBW) ([2]; Day 0): −0.1440%
- Body Weight (g) (Mean ± SD) ([2]; Day 3 (start of dosing)): 21.02 ± 0.993 g
- Body weights on Day 3 ([2]; Day 3, animal F1): 21.60 g
- Body weights on Day 3 ([2]; Day 3, animal F2): 19.60 g
- Body weights on Day 3 ([2]; Day 3, animal F3): 20.50 g
- Body weights on Day 3 ([2]; Day 3, animal F4): 20.30 g
- Body weights on Day 3 ([2]; Day 3, animal F5): 21.30 g
- Body weights on Day 3 ([2]; Day 3, animal M1): 22.20 g
- Body weights on Day 3 ([2]; Day 3, animal M2): 22.00 g
- Body weights on Day 3 ([2]; Day 3, animal M3): 21.20 g
- Body weights on Day 3 ([2]; Day 3, animal M4): 19.50 g
- Body weights on Day 3 ([2]; Day 3, animal M5): 22.00 g
- Percent inhibition of body weight vs vehicle (PIBW) ([2]; Day 3): −0.6705%
- Body Weight (g) (Mean ± SD) ([2]; Day 6): 20.41 ± 0.960 g
- Body weights on Day 6 ([2]; Day 6, animal F1): 20.40 g
- Body weights on Day 6 ([2]; Day 6, animal F2): 18.40 g
- Body weights on Day 6 ([2]; Day 6, animal F3): 19.70 g
- Body weights on Day 6 ([2]; Day 6, animal F4): 20.10 g
- Body weights on Day 6 ([2]; Day 6, animal F5): 20.50 g
- Body weights on Day 6 ([2]; Day 6, animal M1): 20.90 g
- Body weights on Day 6 ([2]; Day 6, animal M2): 21.80 g
- Body weights on Day 6 ([2]; Day 6, animal M3): 20.20 g
- Body weights on Day 6 ([2]; Day 6, animal M4): 20.50 g
- Body weights on Day 6 ([2]; Day 6, animal M5): 21.60 g
- Percent inhibition of body weight vs vehicle (PIBW) ([2]; Day 6): −0.0490%
- Body Weight (g) (Mean ± SD) ([2]; Day 9): 20.99 ± 1.049 g
- Body weights on Day 9 ([2]; Day 9, animal F1): 21.70 g
- Body weights on Day 9 ([2]; Day 9, animal F2): 19.50 g
- Body weights on Day 9 ([2]; Day 9, animal F3): 21.10 g
- Body weights on Day 9 ([2]; Day 9, animal F4): 19.50 g
- Body weights on Day 9 ([2]; Day 9, animal F5): 21.70 g
- Body weights on Day 9 ([2]; Day 9, animal M1): 21.30 g
- Body weights on Day 9 ([2]; Day 9, animal M2): 22.10 g
- Body weights on Day 9 ([2]; Day 9, animal M3): 20.60 g
- Body weights on Day 9 ([2]; Day 9, animal M4): 20.00 g
- Body weights on Day 9 ([2]; Day 9, animal M5): 22.40 g
- Percent inhibition of body weight vs vehicle (PIBW) ([2]; Day 9): −2.8417%
- Body Weight (g) (Mean ± SD) ([2]; Day 12): 22.09 ± 1.079 g
- Body weights on Day 12 ([2]; Day 12, animal F1): 22.50 g
- Body weights on Day 12 ([2]; Day 12, animal F2): 20.10 g
- Body weights on Day 12 ([2]; Day 12, animal F3): 21.40 g
- Body weights on Day 12 ([2]; Day 12, animal F4): 21.70 g
- Body weights on Day 12 ([2]; Day 12, animal F5): 22.20 g
- Body weights on Day 12 ([2]; Day 12, animal M1): 22.80 g
- Body weights on Day 12 ([2]; Day 12, animal M2): 23.40 g
- Body weights on Day 12 ([2]; Day 12, animal M3): 22.20 g
- Body weights on Day 12 ([2]; Day 12, animal M4): 21.00 g
- Body weights on Day 12 ([2]; Day 12, animal M5): 23.60 g
- Percent inhibition of body weight vs vehicle (PIBW) ([2]; Day 12): −0.9137%
- Body Weight (g) (Mean ± SD) ([2]; Day 15): 22.22 ± 1.963 g
- Body weights on Day 15 ([2]; Day 15, animal F1): 21.30 g
- Body weights on Day 15 ([2]; Day 15, animal F2): 18.70 g
- Body weights on Day 15 ([2]; Day 15, animal F3): 20.20 g
- Body weights on Day 15 ([2]; Day 15, animal F4): 22.20 g
- Body weights on Day 15 ([2]; Day 15, animal F5): 22.20 g
- Body weights on Day 15 ([2]; Day 15, animal M1): 24.50 g
- Body weights on Day 15 ([2]; Day 15, animal M2): 24.20 g
- Body weights on Day 15 ([2]; Day 15, animal M3): 22.70 g
- Body weights on Day 15 ([2]; Day 15, animal M4): 21.30 g
- Body weights on Day 15 ([2]; Day 15, animal M5): 24.90 g
- Percent inhibition of body weight vs vehicle (PIBW) ([2]; Day 15): −0.3613%
- body weight effect in words (loss / difference vs vehicle group) ([2]; throughout the course of the study): no statistical differences in body weights
